This is an account of results in patent US9611232B2, “Oxazolidinone and imidazolidinone compounds” (Hoffmann-La Roche Inc., priority 2012, dated 2017).

SMILES strings stand for the structures.

The subject of one assay is renal fibrosis. Conditions: unilateral ureteral obstruction model; cited from earlier work.
In the next assay the test system is MDCK 3-D cyst. Conditions: MDCK 3-D cyst model of ADPKD; cited from earlier work.
Assay [1] concerns trinitrobenzene sulfonic acid-induced colitis. Conditions: mice; cited from earlier work.
Assay [2] has as its system T-cell and macrophage infiltration. The conditions noted are these: in combination with a Kv1.3 blocker; early stages of chronic kidney transplant rejection; cited from earlier work.
Assay [3] relates to neointimal smooth muscle hyperplasia. The conditions noted are these: rats after carotid balloon angioplasty; cited from earlier work.
In another assay the target is KCa3.1 (Homo sapiens (Human), UniProt O15554). In words: Thallium influx assay (FLIPR, FluxOR). The conditions noted are these: CHOK1 cells over-expressing KCa3.1; thallium (3.3 mM)/ionomycin (1 μM) activation. The class given is cell-based. The protocol:
The thallium influx assay was performed with CHOK1 cells over-expressing KCa3.1 obtained from Evotec and maintained in MEM Alpha medium supplemented with 10% fetal bovine serum, 100 U/ml penicillin/[…] streptomycin and 250 μg/ml G418.
CHOK1 wild type cells were passaged using F12/Ham's medium supplemented with 10% fetal bovine serum, 2 mM glutamine, 100 U/ml penicillin/[…] streptomycin. All cells were cultured in T175 flasks.
Before the day of the assay, cells were harvested from culture flasks using standard trypsin digestion. Cells were counted and densities adjusted and dispensed into 384-well poly-D-lysine coated plates at 7500 […], assay plates were incubated overnight in CO2 incubator at 37° C.
The following day, growth media was removed followed by the addition of 25 ul/well of FluxOR™ (Invitrogen) loading dye in a gluconate based assay buffer (135 mM NaGluconate,
2.5 mM Kgluconate, 2 mM CaNO3, 1 mM MgNO3, 10 mM HEPES (acid), 5 mM glucose pH adjusted to 7.4). Assay plates were incubated for 1 hour at 37° C. The loading dye was then replaced with gluconate assay buffer containing probenecid.
Compounds diluted in gluconate buffer were transferred into the assay plates (25 μl/well) followed by incubation for 20 minutes at room temperature. The assay plates were then transferred to a Fluorometric Imaging Plate Reader (FLIPR), a baseline was read for twenty second capture, followed by the addition of 25 μl/well of channel activation solution in gluconate buffer—for KCa3.1 cells thallium (3.3 mM)/ionomycin(1 μM) was used and for the wild type, ionomycin only, then fluorescence was monitored for another 90 seconds.

A further assay addresses h KCa3.1 (Homo sapiens (Human), UniProt O15554). In words: Electrophysiology patch clamp (PatchXpress). Conditions: CHO cells over-expressing h KCa3.1, read-out: IC50 Ephys. The class given is cell-based. The protocol: Electrophysiology Patch Clamp
Compounds were tested using a PatchXpress® (Model 7000A, Molecular Devices, Union City Calif.) on CHO cells over-expressing h KCa3.1 at ChanTest Corporation, 14656 Neo Parkway, Cleveland, Ohio.

The test system of assay [4] is human endometrial cancer cells. Conditions: nude mice; cited from earlier work.
Another assay relates to human melanoma. Conditions: severe combined immunodeficiency mice; cited from earlier work.
Assay [5] has as its system allergen challenge-induced airway resistance and hyper-reactivity. Conditions: sheep model of asthma; cited from earlier work.

As to `Clc1ccccc1C(c1ccccc1)(c1ccccc1)n1cccn1` [TRAM-34], in the assay on renal fibrosis, the renal fibrosis result is on record as “significantly reduced renal fibrosis”. Besides, the cyst formation result in the assay on MDCK 3-D cyst is given as “inhibits cyst formation”. In assay [1], the “severity of the symptoms” value is given as “significantly reduced the severity of the symptoms”. Moreover, the “T-cell and macrophage infiltration” value in assay [2] was “reduced T-cell and macrophage infiltration”. The “neointimal smooth muscle hyperplasia” value in assay [3] is “significantly reduced neointimal smooth muscle hyperplasia”. Consider `NC(=O)CN1C(=O)OC(c2cccc(F)c2)(c2cccc(F)c2)[C@@H]1c1ccccc1F` [Example 15, 2-[(S)-5,5-Bis-(3-fluoro-phenyl)-4-(2-fluoro-phenyl)-2-oxo-oxazolidin-3-yl]-acetamide], for which the 50% inhibitory concentration (IC50) against KCa3.1 was found to be 700 nM; on h KCa3.1 it was 42 nM. On to `Clc1ccccc1C(c1ccccc1)(c1ccccc1)n1ccnc1` [Clotrimazole], for which the growth of tumours entry in assay [4] is reported as “slowed the growth of tumours”. In addition, the number of metastases entry in the assay on human melanoma is “reduce the number of metastases”. As for `NC(=O)C(c1ccccc1)(c1ccc(F)cc1)c1ccc(F)cc1` [Senicapoc], the “allergen challenge-induced airway resistance and hyper-reactivity” value in assay [5] is “reduce allergen challenge-induced airway resistance and hyper-reactivity”. As for `NC(=O)CN1C(=O)OC(c2ccc(F)cc2)(c2ccc(F)cc2)[C@@H]1c1ccccc1Cl` [Example 19, 2-[(S)-4-(2-Chloro-phenyl)-5,5-bis-(4-fluoro-phenyl)-2-oxo-oxazolidin-3-yl]-acetamide], the IC50 on KCa3.1 is 740 nM; on h KCa3.1, 63 nM.

For `NC(=O)CN1C(=O)OC(c2ccccc2F)(c2ccccc2F)[C@@H]1c1ccccc1F` [Example 13, 2-[(S)-4,5,5-Tris-(2-fluoro-phenyl)-2-oxo-oxazolidin-3-yl]-acetamide], the IC50 against KCa3.1 worked out at 340 nM; on h KCa3.1, 15 nM. Turning to `CCOC(=O)CN1C(=O)O[C@@H](c2cccc(C(F)(F)F)c2)[C@H]1c1ccc(F)cc1` (racemic) [Example 32, [(4RS,5SR)-4-(4-Fluoro-phenyl)-2-oxo-5-(3-trifluoromethyl-phenyl)-oxazolidin-3-yl]-acetic acid ethyl ester], the IC50 came to 600 nM against KCa3.1 and 62 nM at h KCa3.1.

Consider `NC(=O)CN1C(=O)OC(c2ccc(F)cc2)(c2ccc(F)cc2)[C@@H]1c1ccc(F)cc1` [Example 7, 2-[(S)-4,5,5-Tris-(4-fluoro-phenyl)-2-oxo-oxazolidin-3-yl]-acetamide], for which the 50% inhibitory concentration (IC50) was 720 nM against KCa3.1 and 45 nM at h KCa3.1. Consider `NC(=O)CN1C(=O)OC(c2ccccc2)(c2ccccc2)[C@@H]1c1ccccc1F` [Example 17, 2-[(S)-4-(2-Fluoro-phenyl)-2-oxo-5,5-diphenyl-oxazolidin-3-yl]-acetamide], for which the concentration for half-maximal inhibition (IC50) is 880 nM against KCa3.1 and 15 nM at h KCa3.1. Molecule `NC(=O)CN1C(=O)OC(c2ccc(F)cc2)(c2ccc(F)cc2)C1c1c(F)cccc1F` (stereo not drawn) [Example 8, 2-[4-(2,6-Difluoro-phenyl)-5,5-bis-(4-fluoro-phenyl)-2-oxo-oxazolidin-3-yl]-acetamide] registered a 50% inhibitory concentration (IC50) at KCa3.1 of 7150 nM. Still for that read-out and setting: under `CCNC(=O)CN1C(=O)O[C@@H](c2cccc(C(F)(F)F)c2)[C@H]1c1ccc(F)cc1` (racemic) [Example 37] stands 4900 nM.

Take `NC(=O)CN1C(=O)OC(c2ccccc2F)(c2ccccc2F)[C@@H]1c1ccccc1` [Example 2, 2-[(S)-5,5-Bis-(2-fluoro-phenyl)-2-oxo-4-phenyl-oxazolidin-3-yl]-acetamide]: 830 nM corresponded to half-maximal inhibition against KCa3.1 (IC50). Turning to `NC(=O)CN1C(=O)OC(c2ccc(F)cc2)(c2ccc(F)cc2)[C@@H]1c1ccccc1` [Example 1, (S)-2-(5,5-bis(4-fluorophenyl)-2-oxo-4-phenyloxazolidin-3-yl)acetamide], the 50% inhibitory concentration (IC50) on KCa3.1 came out at 860 nM; on h KCa3.1, 58 nM. The corresponding values for `NC(=O)CN1C(=O)OC(c2ccc(F)cc2)(c2ccc(F)cc2)[C@@H]1c1ccccc1F` [Example 11, 2-[(S)-5,5-Bis-(4-fluoro-phenyl)-4-(2-fluoro-phenyl)-2-oxo-oxazolidin-3-yl]-acetamide] are 250 nM and 22 nM.
